Assay results reported in patent US9926305B2, “Salts” (Bayer Pharma Aktiengesellschaft, priority 2013, dated 2018).

What was measured:
[1] = storage stability after processing via suspensions; format: physicochemical; details: crystalline salt, even after processing via suspensions
[2] = for some applications; suitability for use in formulations

Q: For Cn1c(=O)oc2cc(-n3cc(C(=O)[O-])c(=O)n([C@@H]4CCc5c4cccc5C(F)(F)F)c3=O)ccc21.[Na+] [sodium salt, sodium salt of 1-(3-methyl-2-oxo-2,3-dihydro-1,3-benzoxazol-6-yl)-2,4-dioxo-3-[(1R)-4-(trifluoromethyl)-2,3-dihydro-1H-inden-1-yl]-1,2,3,4-tetrahydropyrimidine-5-carboxylic acid], which storage stability [1] is on record?
A: The storage stability was “storage-stable”.

Q: For Cn1c(=O)oc2cc(-n3cc(C(=O)O)c(=O)n([C@@H]4CCc5c4cccc5C(F)(F)F)c3=O)ccc21 [free acid, 1-(3-Methyl-2-oxo-2,3-dihydro-1,3-benzoxazol-6-yl)-2,4-dioxo-3-[(1R)-4-(trifluoromethyl)-2,3-dihydro-1H-inden-1-yl]-1,2,3,4-tetrahydropyrimidine-5-carboxylic acid], which solubility [2] is on record?
A: Its solubility is “insufficient solubility”.

Q: For Cn1c(=O)oc2cc(-n3cc(C(=O)O)c(=O)n([C@@H]4CCc5c4cccc5C(F)(F)F)c3=O)ccc21.NCCCC[C@H](N)C(=O)O [L-lysine salt, L-lysine salt of 1-(3-methyl-2-oxo-2,3-dihydro-1,3-benzoxazol-6-yl)-2,4-dioxo-3-[(1R)-4-(trifluoromethyl)-2,3-dihydro-1H-inden-1-yl]-1,2,3,4-tetrahydropyrimidine-5-carboxylic acid], which storage stability [1] is on record?
A: Its storage stability is “storage-stable”.

Q: For Cn1c(=O)oc2cc(-n3cc(C(=O)[O-])c(=O)n([C@@H]4CCc5c4cccc5C(F)(F)F)c3=O)ccc21.[K+] [potassium salt, potassium salt of 1-(3-methyl-2-oxo-2,3-dihydro-1,3-benzoxazol-6-yl)-2,4-dioxo-3-[(1R)-4-(trifluoromethyl)-2,3-dihydro-1H-inden-1-yl]-1,2,3,4-tetrahydropyrimidine-5-carboxylic acid], which storage stability [1] is on record?
A: The storage stability was “storage-stable”.
